# Patent publication US7015237B2, “Pyridine matrix metalloproteinase inhibitors” (Warner-Lambert Company, priority 2001, dated 2006)
# pIC50: −log10 of the molar value. Read-outs that look alike come from different tables or passages of the source.
# How the values were obtained:
# [1] = target: MMP-13 (catalytic domain of collagenase 3) (Homo sapiens, UniProt P45452); test: Thiopeptolide substrate hydrolysis assay, MMP-13; type: biochemical
# Text: (§1) The assays used to evaluate the biological activity of the invention compounds are well known and routinely used by those skilled in the study of MMP inhibitors and their use to treat clinical conditions.
# (§2) The assays measure the amount by which a test compound reduces the hydrolysis of a thiopeptolide substrate catalyzed by a matrix metalloproteinase enzyme. Such assays are described in detail by Ye et al., in Biochemistry, 1992; 31(45):11231–11235, which is incorporated herein by reference.
# Thiopeptolide substrates show virtually no decomposition or hydrolysis at or below neutral pH in the absence of a matrix metalloproteinase enzyme. A typical thiopeptolide substrate commonly utilized for assays is Ac-Pro-Leu-Gly-thioester-Leu-Leu-Gly-OEt. A 100-μL assay mixture will contain 50 mM of N-2-hydroxyethylpiperazine-N′-2-ethanesulfonic acid buffer (“HEPES”) at pH 7.0, 10 mM CaCl2, 100 μM thiopeptolide substrate, and 1 mM 5,5′-dithio-bis-(2-nitro-benzoic acid) (DTNB). The thiopeptolide substrate concentration may be varied from, for example, 10 to 800 μM to obtain Km and Kcat values. The change in absorbance at 405 nm is monitored on a Thermo Max microplate reader (Molecular Devices, Menlo Park, Calif.) at room temperature (22° C.). The calculation of the amount of hydrolysis of the thiopeptolide substrate is based on E412=13600 M^−1 cm^−1 for the DTNB-derived product 3-carboxy-4-nitrothiophenoxide. Assays are carried out with and without matrix metalloproteinase inhibitor compounds, and the amount of hydrolysis is compared for a determination of inhibitory activity of the test compounds.
# In the tables, MMP-1 refers to full-length interstitial collagenase; MMP-3 refers to the catalytic domain of stromelysin-1; MMP-13 refers to the catalytic domain of collagenase 3. Test compounds were evaluated at various concentrations to determine their respective IC50 values.
# [2] = target: T1, MMP-1 (full-length interstitial collagenase) (Homo sapiens, UniProt P03956); test: Thiopeptolide substrate hydrolysis assay, MMP-1; type: biochemical; conditions: pH 7.0, 22° C.
# T1 sequence (P03956 100-469): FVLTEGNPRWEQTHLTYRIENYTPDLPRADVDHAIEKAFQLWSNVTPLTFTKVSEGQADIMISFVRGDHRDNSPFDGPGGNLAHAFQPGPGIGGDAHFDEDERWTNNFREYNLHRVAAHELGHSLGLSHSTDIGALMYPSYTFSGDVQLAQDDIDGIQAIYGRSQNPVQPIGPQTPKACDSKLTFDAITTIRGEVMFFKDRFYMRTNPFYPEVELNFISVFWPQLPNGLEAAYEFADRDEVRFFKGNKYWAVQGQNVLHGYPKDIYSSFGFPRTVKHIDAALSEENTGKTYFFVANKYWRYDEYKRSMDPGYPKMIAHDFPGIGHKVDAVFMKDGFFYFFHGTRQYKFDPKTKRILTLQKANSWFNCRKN
# Text: as §1, with “The invention compounds of Formula I have been evaluated in standard assays for their ability to inhibit the catalytic activity of various MMP enzymes. The” for “The”
# as §2
# Thiopeptolide substrates show virtually no decomposition or hydrolysis at or below neutral pH in the absence of a matrix metalloproteinase enzyme. A typical thiopeptolide substrate commonly utilized for assays is Ac-Pro-Leu-Gly-thioester-Leu-Leu-Gly-OEt. […] The change in absorbance at 405 nm is monitored on a Thermo Max microplate reader (Molecular Devices, Menlo Park, Calif.) at room temperature (22° C.). […]
# Representative compounds have been evaluated for their ability to inhibit various matrix metalloproteinase enzymes. […] Test compounds were evaluated at various concentrations to determine their respective IC50 values.
# [3] = catalytic domain of collagenase 3, Table 1, read-out: MMP-13 IC50
# [4] = catalytic domain, human, combinatorial compounds of Example 14, Table 2, read-out: MMP-13 IC50 CD/Human
melting point [°C],"pIC50 [1, 4]",Compound,further results
224 to 225,–,"O=C(NCc1ccc(Cl)cc1)c1cncc(C(=O)NCc2ccc(Cl)cc2)c1 [Example 2, Pyridine-3,5-dicarboxylic acid bis-(4-chloro-benzylamide)]",–
185 to 186,–,"O=C(NCc1cccc(Cl)c1)c1cncc(C(=O)NCc2cccc(Cl)c2)c1 [Example 3, Pyridine-3,5-dicarboxylic acid bis-(3-chloro-benzylamide)]","pIC50 [1, 3]: 4.52"
113 to 114,–,"O=C(OCc1ccc2c(c1)OCO2)c1cncc(C(=O)OCc2ccc3c(c2)OCO3)c1 [Example 5, Pyridine-3,5-dicarboxylic acid bis-(1,3-benzodioxol-5-ylmethyl) ester]",–
224 to 225,–,"COc1ccc(CNC(=O)c2cncc(C(=O)NCc3ccc(OC)cc3)c2)cc1 [Example 6, Pyridine-3,5-dicarboxylic acid bis-(4-methoxy-benzylamide)]","pIC50 [1, 3]: 5.06"
194 to 195,–,"O=C(NCc1ccc2c(c1)OCO2)c1cncc(C(=O)NCc2ccc3c(c2)OCO3)c1 [Example 7, Pyridine-3,5-dicarboxylic acid bis-[(1,3-benzodioxol-5-ylmethyl)-amide]]","pIC50 [2]: 4.52; pIC50 [1, 3]: 5.64"
216 to 218,–,"O=C(NCc1ccc(F)cc1)c1cncc(C(=O)NCc2ccc(F)cc2)c1 [Example 9, Pyridine-3,5-dicarboxylic acid bis-(4-fluoro-benzylamide)]",–
–,4.52,"COc1ccc2[nH]cc(CCNC(=O)c3ccnc(C(=O)NCCc4c[nH]c5ccc(OC)cc45)c3)c2c1 [Example 14.78, Pyridine-2,4-dicarboxylic acid bis-{[2-(5-methoxy-1H-indol-3-yl)-ethyl]-amide}]",–
–,4.52,"O=C(NCCc1c[nH]c2ccccc12)c1ccnc(C(=O)NCCc2c[nH]c3ccccc23)c1 [Example 14.79, Pyridine-2,4-dicarboxylic acid bis-{[2-(1H-indol-3-yl)-ethyl]-amide}]",–
–,4.52,"O=C(NCc1cc(Cl)cc(Cl)c1)c1ccnc(C(=O)NCc2cc(Cl)cc(Cl)c2)c1 [Example 14.80, Pyridine-2,4-dicarboxylic acid bis-(3,5-dichloro-benzylamide)]",–

Compound,melting point [°C],"pIC50 [1, 4]",further results
"Pyridine-2,4-dicarboxylic acid bis-benzylamide [Example 14.5]",–,6.54,–
"Pyridine-2,4-dicarboxylic acid bis-indan-1-ylamide [Example 14.73]",–,6.36,–
